Results: ChEMBL document CHEMBL5506033, “Brain-Penetrant Macrocycles: Design Considerations, Future Prospects, and Call for Papers” (J Med Chem, 2024)

Experiments:
[1] = Half life in human; assay type: ADME
[2] = Oral bioavailability in human; assay type: ADME, organism-based; details: in vivo

**Q.** With `C[C@H]1Oc2cc(cnc2N)-c2c(nn(C)c2C#N)CN(C)C(=O)c2ccc(F)cc21` [LORLATINIB] as the compound, how does the half-life [1] read?
**A.** Its half-life is ~25 h.

**Q.** What about the bioavailability [2] of the same compound?
**A.** Its bioavailability is 81%.
